Test results taken from PubChem BioAssay AID330 (DTP/NCI, 2004).
“And” between values parts separate entries of the source, which are not always exact repeats. Equal entries are not always repeated. Inconclusive results and toxic doses are left out.

Tested on: P388 leukemia ip, CD2F1 mice, survival T/C
Assay: NCI In Vivo Anticancer Drug Screen. Data for tumor model P388 Leukemia (intraperitoneal) in CD2F1 (CDF1) mice
Details: endpoint: median survival time, higher = longer survival
In short: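 Mice carrying the transplanted tumor received test compound or vehicle. Survival was recorded in each group, and the value is the treated-group measurement divided by that of the vehicle-treated control group.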

[1] = dose: 50.0 mg/kg/injection, schedule: Q01DX009 (ip), vehicle: saline with Tween-80
[2] = dose: 100.0 mg/kg/injection, schedule: Q01DX009 (ip), vehicle: saline with Tween-80
[3] = dose: 100.0 mg/kg/injection, schedule: Q04DX003 (ip), vehicle: saline with Tween-80
[4] = dose: 50.0 mg/kg/injection, schedule: Q01DX005 (ip), vehicle: Klucel (hydroxypropylcellulose) (HPC)
[5] = dose: 100.0 mg/kg/injection, schedule: Q01DX005 (ip), vehicle: Klucel (hydroxypropylcellulose) (HPC)
[6] = dose: 200.0 mg/kg/injection, schedule: Q01DX005 (ip), vehicle: Klucel (hydroxypropylcellulose) (HPC)
[7] = dose: 50.0 mg/kg/injection, schedule: Q01DX009 (ip), vehicle: saline

In the case of `CC1(C)COC(Cc2ccccc2)=N1`, the T/C [1] is reported as 100 % of control, the T/C (dose: 50.0 mg/kg/injection, schedule: Q04DX003 (ip), vehicle: saline with Tween-80) is reported as 100 % of control and the T/C [2] is reported as 104 % of control. For the same compound, the T/C [3] was 95 % of control, the T/C (dose: 200.0 mg/kg/injection, schedule: Q01DX009 (ip), vehicle: saline with Tween-80) was 100 % of control and the T/C (dose: 200.0 mg/kg/injection, schedule: Q04DX003 (ip), vehicle: saline with Tween-80) was 100 % of control.

`COc1cccc2c1C(=O)c1c(O)c3c(c(O)c1C2=O)C[C@@](O)(/C(C)=N/NC(=O)c1cccs1)C[C@@H]3OC1CC(N)C(O)C(C)O1` (stereo partly drawn) was tested, and the T/C (dose: 1.56 mg/kg/injection, schedule: Q04DX003 (ip), vehicle: saline) was 169 % of control, the T/C (dose: 3.13 mg/kg/injection, schedule: Q04DX003 (ip), vehicle: saline) was 178 % of control and the T/C (dose: 6.25 mg/kg/injection, schedule: Q04DX003 (ip), vehicle: saline) was 191 % of control. The T/C (dose: 12.5 mg/kg/injection, schedule: Q04DX003 (ip), vehicle: saline) was 206 % of control and the T/C (dose: 25.0 mg/kg/injection, schedule: Q04DX003 (ip), vehicle: saline) was 104 % of control.

With `NCCCNC(=O)c1ccccc1N` the T/C [4] was 100 % of control, the T/C [5] was 100 % of control and the T/C [6] was 100 % of control.

`CCCOC(=O)c1ccc2nc(NC(=O)OC)[nH]c2c1` was tested, and the T/C (dose: 50.0 mg/kg/injection, schedule: Q01DX005 (ip), vehicle: saline with Tween-80) was 96 % of control, the T/C (dose: 100.0 mg/kg/injection, schedule: Q01DX005 (ip), vehicle: saline with Tween-80) was 91 % of control and the T/C (dose: 200.0 mg/kg/injection, schedule: Q01DX005 (ip), vehicle: saline with Tween-80) was 97 % of control.

With `Cc1nn(-c2ccccc2)c(=O)n2c1nc1ccccc12` the T/C (dose: 60.0 mg/kg/injection, schedule: Q01DX005 (ip), vehicle: Klucel (hydroxypropylcellulose) (HPC)) was 99 % of control, the T/C (dose: 120.0 mg/kg/injection, schedule: Q01DX005 (ip), vehicle: Klucel (hydroxypropylcellulose) (HPC)) was 97 % of control and the T/C (dose: 240.0 mg/kg/injection, schedule: Q01DX005 (ip), vehicle: Klucel (hydroxypropylcellulose) (HPC)) was 91 % of control.

`C=C1C(=O)C[C@H]2[C@H]3CC[C@H](C(=O)O)[C@]12CC3(C)C` was tested, and the T/C (dose: 7.5 mg/kg/injection, schedule: Q01DX005 (ip), vehicle: Klucel (hydroxypropylcellulose) (HPC)) was 119 % of control, the T/C (dose: 15.0 mg/kg/injection, schedule: Q01DX005 (ip), vehicle: Klucel (hydroxypropylcellulose) (HPC)) was 113 % of control and the T/C (dose: 30.0 mg/kg/injection, schedule: Q01DX005 (ip), vehicle: Klucel (hydroxypropylcellulose) (HPC)) was 119 % of control. For the same compound, the T/C (dose: 31.5 mg/kg/injection, schedule: Q01DX005 (ip), vehicle: Klucel (hydroxypropylcellulose) (HPC)) was 111 % of control.

In the case of `C/C=C(\C)c1cc(=O)c2c(C)cc3c(c2o1)C(=O)c1c(OC)cccc1C3=O`, the T/C (dose: 100.0 mg/kg/injection, schedule: Q01DX001 (ip), vehicle: saline with Tween-80) is reported as 96 % of control, the T/C (dose: 200.0 mg/kg/injection, schedule: Q01DX001 (ip), vehicle: saline with Tween-80) is reported as 93 % of control and the T/C (dose: 400.0 mg/kg/injection, schedule: Q01DX001 (ip), vehicle: saline with Tween-80) is reported as 89 % of control.

`Cc1c(Cl)cccc1-n1c(=O)c2[nH]c3ccccc3sc=2c1=O` was tested, and the T/C (dose: 60.0 mg/kg/injection, schedule: Q01DX005 (ip), vehicle: saline with Tween-80) was 100 % of control, the T/C (dose: 120.0 mg/kg/injection, schedule: Q01DX005 (ip), vehicle: saline with Tween-80) was 92 % of control and the T/C (dose: 240.0 mg/kg/injection, schedule: Q01DX005 (ip), vehicle: saline with Tween-80) was 97 % of control.

In the case of `CCOC(=O)C1=C(c2ccccc2)C2OC1C(COC(=O)NC)=C2COC(=O)NC` (stereo not drawn), the T/C (dose: 12.5 mg/kg/injection, schedule: Q01DX009 (ip), vehicle: distilled water + Tween-80) is reported as 96 % of control, the T/C (dose: 25.0 mg/kg/injection, schedule: Q01DX009 (ip), vehicle: distilled water + Tween-80) is reported as 93 % of control and the T/C (dose: 50.0 mg/kg/injection, schedule: Q01DX009 (ip), vehicle: distilled water + Tween-80) is reported as 87 % of control. For the same compound, the T/C (dose: 100.0 mg/kg/injection, schedule: Q01DX009 (ip), vehicle: distilled water + Tween-80) was 87 % of control and the T/C (dose: 200.0 mg/kg/injection, schedule: Q01DX009 (ip), vehicle: distilled water + Tween-80) was 99 % of control.

For `O=C1c2ccccc2C(=O)N1OCc1ccccc1[N+](=O)[O-]`, the T/C [4] was 102 % of control, the T/C [5] was 101 % of control and the T/C [6] was 90 % of control.

With `O=C(O)c1cccc2c1-c1ccccc1C2=O` the T/C (dose: 12.5 mg/kg/injection, schedule: Q01DX005 (ip), vehicle: Klucel (hydroxypropylcellulose) (HPC)) was 94 % of control, the T/C (dose: 25.0 mg/kg/injection, schedule: Q01DX005 (ip), vehicle: Klucel (hydroxypropylcellulose) (HPC)) was 99 % of control and the T/C [4] was 97 % of control. The T/C [5] was 100 % of control and the T/C [6] was 103 % of control.

For `C[C@]12CC[C@H]3[C@@H](CCC4=CC(=O)CC[C@@]43C)[C@@H]1CC[C@@H]2OC(=O)Cc1ccc(N(CCCl)CCCl)cc1`, the T/C [3] was 112 % of control and the T/C (dose: 264.0 mg/kg/injection, schedule: Q04DX003 (ip), vehicle: saline with Tween-80) was 109 % of control.

With `F[B-](F)(F)F` the T/C (dose: 12.5 mg/kg/injection, schedule: Q01DX009 (ip), vehicle: gum acacia) was 111 % of control, the T/C (dose: 25.0 mg/kg/injection, schedule: Q01DX009 (ip), vehicle: gum acacia) was 118 % of control and the T/C (dose: 50.0 mg/kg/injection, schedule: Q01DX009 (ip), vehicle: gum acacia) was 109 % of control and 114 % of control. The T/C (dose: 100.0 mg/kg/injection, schedule: Q01DX009 (ip), vehicle: gum acacia) was 123 % of control.

In the case of `COc1cc(NC(C)=O)c(OC)c2c(=O)cc(C(=O)O)[nH]c12`, the T/C (dose: 100.0 mg/kg/injection, schedule: Q01DX001 (ip), vehicle: Klucel (hydroxypropylcellulose) (HPC)) is reported as 93 % of control, the T/C (dose: 200.0 mg/kg/injection, schedule: Q01DX001 (ip), vehicle: Klucel (hydroxypropylcellulose) (HPC)) is reported as 98 % of control and the T/C (dose: 400.0 mg/kg/injection, schedule: Q01DX001 (ip), vehicle: Klucel (hydroxypropylcellulose) (HPC)) is reported as 99 % of control.

With `CN(C)C(=S)SCc1ccc(C(=O)O)nc1` the T/C [1] was 99 % of control and the T/C [2] was 98 % of control.

In the case of `COc1cc(NC(C)CN(CC(C)C)C(C)C)c2ncccc2c1` (stereo not drawn), the T/C (dose: 50.0 mg/kg/injection, schedule: Q01DX005 (ip), vehicle: saline) is reported as 104 % of control and the T/C (dose: 100.0 mg/kg/injection, schedule: Q01DX005 (ip), vehicle: saline) is reported as 98 % of control.

In the case of `O=C(O)c1c[nH]c2cc(O)ccc2c1=O`, the T/C (dose: 12.5 mg/kg/injection, schedule: Q01DX009 (ip), vehicle: saline with Tween-80) is reported as 98 % of control, the T/C (dose: 25.0 mg/kg/injection, schedule: Q01DX009 (ip), vehicle: saline with Tween-80) is reported as 96 % of control and the T/C [1] is reported as 103 % of control. The T/C [7] was 103 % of control, the T/C (dose: 100.0 mg/kg/injection, schedule: Q01DX009 (ip), vehicle: saline) was 101 % of control and the T/C (dose: 200.0 mg/kg/injection, schedule: Q01DX009 (ip), vehicle: saline) was 95 % of control.

For `CCCCCCCCCCCCCCCCSC1=CC(=O)C(Cl)=C(Cl)C1=O`, the T/C (dose: 10.0 mg/kg/injection, schedule: Q01DX009 (ip), vehicle: Klucel (hydroxypropylcellulose) (HPC)) was 96 % of control, the T/C (dose: 20.0 mg/kg/injection, schedule: Q01DX009 (ip), vehicle: Klucel (hydroxypropylcellulose) (HPC)) was 96 % of control and the T/C (dose: 40.0 mg/kg/injection, schedule: Q01DX009 (ip), vehicle: Klucel (hydroxypropylcellulose) (HPC)) was 95 % of control.

`CC(=O)Nc1ccc(N=Nc2c(C)nn(C(=N)N)c2C)cc1` was tested, and the T/C (dose: 6.25 mg/kg/injection, schedule: Q01DX009 (ip), vehicle: saline) was 100 % of control and 103 % of control, the T/C (dose: 12.5 mg/kg/injection, schedule: Q01DX009 (ip), vehicle: saline) was 108 % of control and 109 % of control and 93 % of control and the T/C (dose: 25.0 mg/kg/injection, schedule: Q01DX009 (ip), vehicle: saline) was 114 % of control. For the same compound, the T/C [7] was 123 % of control, the T/C (dose: 50.0 mg/kg/injection, schedule: Q04DX003 (ip), vehicle: saline) was 98 % of control and the T/C (dose: 100.0 mg/kg/injection, schedule: Q04DX003 (ip), vehicle: saline) was 110 % of control. The T/C (dose: 200.0 mg/kg/injection, schedule: Q04DX003 (ip), vehicle: saline) was 122 % of control and the T/C (dose: 300.0 mg/kg/injection, schedule: Q04DX003 (ip), vehicle: saline) was 121 % of control.

`c1ccc(OCCC[P+](c2ccccc2)(c2ccccc2)c2ccccc2)cc1` was tested, and the T/C (dose: 0.7 mg/kg/injection, schedule: Q01DX010 (ip), vehicle: carboxymethylcellulose (CMC)) was 120 % of control, the T/C (dose: 1.5 mg/kg/injection, schedule: Q01DX010 (ip), vehicle: carboxymethylcellulose (CMC)) was 110 % of control and the T/C (dose: 3.0 mg/kg/injection, schedule: Q01DX010 (ip), vehicle: carboxymethylcellulose (CMC)) was 120 % of control. The T/C (dose: 4.1 mg/kg/injection, schedule: Q01DX009 (ip), vehicle: saline sonified) was 113 % of control and the T/C (dose: 6.25 mg/kg/injection, schedule: Q01DX009 (ip), vehicle: saline sonified) was 118 % of control.
